From patent publication US6770597B2, “Benzohydrazide derivatives as herbicides and desiccant compositions containing them” (Ishihara Sangyo Kaisha, Ltd., priority 2002, dated 2004)

What was measured:
Assay type in all cases: in vivo
[1] = test system: barnyardgrass (Echinochloa crus-galli, ECHCG); assay: Greenhouse herbicide screen, post-emerge application, phytotoxicity rating; conditions: POST emergent, 14 days after application, scale 0-100
Text: (§1) A standard greenhouse herbicide activity screening system was used to evaluate the herbicidal efficacy and crop safety of these test compounds. Seven broadleaf weed species including redroot pigweed (Amaranthus retrofiexus, AMARE), velvetleaf (Abutilon theophrasti, ABUTH), sicklepod (Cassia obtusifolia, CASOB), ivyleaf morningglory (Ipomoea hederacea, IPOHE), lambsquarters (Chenopodium album, CHEAL), common ragweed (Ambrosia artemisiifolia L., AMBEL), and cocklebur (Xanthium strumarium, XANST) were used as test species. Four grass weed species including green foxtail (Setaria viridis, SETVI), barnyardgrass (Echinochloa crus-galli, ECHCG), johnsongrass (Sorghum halepense, SORHA), and large crabgrass (Digitaria sanguinalis, DIGSA) were also used. In addition, four crop species, field corn (Zea mays L., var. Dekalb 535, CORN), soybean (Glycine max L., var. Pella 86, SOY), upland rice (Oryza sp., var.Cocodrie, RICE) and wheat (Triticum aestivum L.) were included.
(§2) All plants were grown in 10 cm square plastic pots which were filled with a sandy loam soil mix. For pre-emerge tests, seeds were planted one day prior to application of the test compounds. For post-emerge tests, seeds were planted 8-21 days prior to the test to allow emergence and good foliage development prior to application of the test substances. At the time of the post-emerge application, plants of all species were usually at the 2-3 leaf stage of development.
(§3) All test compounds were dissolved in acetone and applied to the test units in a volume of 187 l/ha. Test materials were applied at rates ranging from 15 g ai/ha to 1000 g ai/ha using a track sprayer equipped with a TJ8001E even flow flat fan spray nozzle. Plants were arranged on a shelf so that the top of the canopy (post-emerge) or top of the soil surface (pre-emerge) was 40-45 cm below the nozzle. Pressurized air was used to force the test solution through the nozzle as it was mechanically advanced (via electrically driven chain drive) over the top of all test plants/pots. This application simulates a typical commercial field herbicide application.
(§4) Pre-emergence tests were top watered immediately after treatment to incorporate the test materials, then routinely top-watered for normal growth. Post-emerge test units were always bottom-watered.
(§5) At 14 days after application of the test materials, phytotoxicity ratings were recorded. A rating scale of 0-100 was used as previously described in Research Methods in Weed Science, 2nd edition, B. Truelove, Ed., Southern Weed Science Society, Auburn University, Auburn, Ala., 1977. Briefly, “0” corresponds to no damage and “100” corresponds to complete death of all plants in the test unit. This scale was used both to determine efficacy against weed species and damage to crop species. Herbicide activity data for various compounds of this invention, which are shown by compound No. in Tables 1-12, are shown in Tables 13 and 14.

[2] = test system: cocklebur (Xanthium strumarium, XANST); assay: as above; conditions: POST emergent, 14 days after application, scale 0-100
Text: as §1, §2, §3, §4, §5

[3] = test system: common ragweed (Ambrosia artemisiifolia L., AMBEL); assay: as above; conditions: POST emergent, 14 days after application, scale 0-100
Text: as §1, §2, §3, §4, §5

[4] = test system: green foxtail (Setaria viridis, SETVI); assay: as above; conditions: POST emergent, 14 days after application, scale 0-100
Text: as §1, §2, §3, §4, §5

[5] = test system: ivyleaf morningglory (Ipomoea hederacea, IPOHE); assay: as above; conditions: POST emergent, 14 days after application, scale 0-100
Text: as §1, §2, §3, §4, §5

[6] = test system: johnsongrass (Sorghum halepense, SORHA); assay: as above; conditions: POST emergent, 14 days after application, scale 0-100
Text: as §1, §2, §3, §4, §5

[7] = test system: lambsquarters (Chenopodium album, CHEAL); assay: as above; conditions: POST emergent, 14 days after application, scale 0-100
Text: as §1, §2, §3, §4, §5

[8] = test system: large crabgrass (Digitaria sanguinalis, DIGSA); assay: as above; conditions: POST emergent, 14 days after application, scale 0-100
Text: as §1, §2, §3, §4, §5

[9] = test system: redroot pigweed (Amaranthus retrofiexus, AMARE); assay: as above; conditions: POST emergent, 14 days after application
Text: as §1, §2, §3, §4, §5

[10] = test system: sicklepod (Cassia obtusifolia, CASOB); assay: as above; conditions: POST emergent, 14 days after application, scale 0-100
Text: as §1, §2, §3, §4, §5

[11] = test system: velvetleaf (Abutilon theophrasti, ABUTH); assay: as above; conditions: POST emergent, 14 days after application, scale 0-100
Text: as §1, §2, §3, §4, §5

[12] = test system: field corn (Zea mays L., var. Dekalb 535, CORN); assay: Greenhouse herbicide screen, post-emerge application, crop damage rating; conditions: POST emergent, 14 days after application, scale 0-100
Text: as §1, §2, §3, §4, §5

[13] = test system: upland rice (Oryza sp., var.Cocodrie, RICE); assay: as above; conditions: POST emergent, 14 days after application, scale 0-100
Text: as §1, §2, §3, §4, §5

[14] = test system: barnyardgrass (Echinochloa crus-galli, ECHCG); assay: Greenhouse herbicide screen, pre-emerge application, phytotoxicity rating; conditions: PRE emergent, 14 days after application, rating scale 0-100
Text: as §1, §2, §3, §4, §5

[15] = test system: cocklebur (Xanthium strumarium, XANST); assay: as above; conditions: PRE emergent, 14 days after application, rating scale 0-100
Text: as §1, §2, §3, §4, §5

[16] = test system: common ragweed (Ambrosia artemisiifolia L., AMBEL); assay: as above; conditions: PRE emergent, 14 days after application, rating scale 0-100
Text: as §1, §2, §3, §4, §5

[17] = test system: green foxtail (Setaria viridis, SETVI); assay: as above; conditions: PRE emergent, 14 days after application, rating scale 0-100
Text: as §1, §2, §3, §4, §5

[18] = test system: ivyleaf morningglory (Ipomoea hederacea, IPOHE); assay: as above; conditions: PRE emergent, 14 days after application, rating scale 0-100
Text: as §1, §2, §3, §4, §5

[19] = test system: johnsongrass (Sorghum halepense, SORHA); assay: as above; conditions: PRE emergent, 14 days after application, rating scale 0-100
Text: as §1, §2, §3, §4, §5

[20] = test system: lambsquarters (Chenopodium album, CHEAL); assay: as above; conditions: PRE emergent, 14 days after application, rating scale 0-100
Text: as §1, §2, §3, §4, §5

[21] = test system: large crabgrass (Digitaria sanguinalis, DIGSA); assay: as above; conditions: PRE emergent, 14 days after application, rating scale 0-100
Text: as §1, §2, §3, §4, §5

[22] = test system: redroot pigweed (Amaranthus retrofiexus, AMARE); assay: as above; conditions: PRE emergent, 14 days after application, rating scale 0-100
Text: as §1, §2, §3, §4, §5

[23] = test system: sicklepod (Cassia obtusifolia, CASOB); assay: as above; conditions: PRE emergent, 14 days after application, rating scale 0-100
Text: as §1, §2, §3, §4, §5

[24] = test system: velvetleaf (Abutilon theophrasti, ABUTH); assay: as above; conditions: PRE emergent, 14 days after application, rating scale 0-100
Text: as §1, §2, §3, §4, §5

[25] = test system: field corn (Zea mays L., var. Dekalb 535, CORN); assay: Greenhouse herbicide screen, pre-emerge application, crop damage rating; conditions: PRE emergent, 14 days after application, rating scale 0-100
Text: as §1, §2, §3, §4, §5

[26] = test system: upland rice (Oryza sp., var.Cocodrie, RICE); assay: as above; conditions: PRE emergent, 14 days after application, rating scale 0-100
Text: as §1, §2, §3, §4, §5

Cn1c(C(F)(F)F)cc(=O)n(-c2cc(C(=O)NN3CCCC3)c(Cl)cc2F)c1=O [Compound 1-11]
15: phytotoxicity rating CASOB ([10]; 63 g ai/ha) | phytotoxicity rating ECHCG ([14]; 63 g ai/ha)
70: phytotoxicity rating ECHCO ([1]; 63 g ai/ha) | phytotoxicity rating SORHA ([6]; 63 g ai/ha) | phytotoxicity rating IPOHE ([18]; 63 g ai/ha) | phytotoxicity rating CASOB ([23]; 63 g ai/ha)
65: crop damage rating RICE ([13]; 63 g ai/ha) | crop damage rating RICE ([13]; 250 g ai/ha)
50: phytotoxicity rating SETVI ([4]; 63 g ai/ha) | phytotoxicity rating SETVI ([17]; 63 g ai/ha) | phytotoxicity rating DIGSA ([21]; 63 g ai/ha) | crop damage rating CORN ([25]; 250 g ai/ha)
60: phytotoxicity rating AMBEL ([16]; 63 g ai/ha)
0: phytotoxicity rating XANST ([15]; 63 g ai/ha) | crop damage rating CORN ([25]; 63 g ai/ha)
100: phytotoxicity rating ECHCO ([1]; 250 g ai/ha) | phytotoxicity rating XANST ([2]; 250 g ai/ha) | phytotoxicity rating AMBEL ([3]; 250 g ai/ha) | phytotoxicity rating IPOHE ([5]; 63 g ai/ha) | phytotoxicity rating IPOHE ([5]; 250 g ai/ha) | phytotoxicity rating CHEAL ([7]; 250 g ai/ha) | phytotoxicity rating AMARE ([9]; 63 g ai/ha, scale 0-100 (0 no damage, 100 complete death)) | phytotoxicity rating AMARE ([9]; 250 g ai/ha, scale 0-100) | phytotoxicity rating ABUTH ([11]; 63 g ai/ha) | phytotoxicity rating ABUTH ([11]; 250 g ai/ha) | phytotoxicity rating SETVI ([17]; 250 g ai/ha) | phytotoxicity rating IPOHE ([18]; 250 g ai/ha) | phytotoxicity rating CHEAL ([20]; 63 g ai/ha) | phytotoxicity rating CHEAL ([20]; 250 g ai/ha) | phytotoxicity rating DIGSA ([21]; 250 g ai/ha) | phytotoxicity rating AMARE ([22]; 63 g ai/ha) | phytotoxicity rating AMARE ([22]; 250 g ai/ha) | phytotoxicity rating ABUTH ([24]; 63 g ai/ha) | phytotoxicity rating ABUTH ([24]; 250 g ai/ha)
40: phytotoxicity rating DIGSA ([8]; 63 g ai/ha) | phytotoxicity rating XANST ([15]; 250 g ai/ha)
98: phytotoxicity rating AMBEL ([16]; 250 g ai/ha)
80: phytotoxicity rating SORHA ([6]; 250 g ai/ha) | phytotoxicity rating CASOB ([10]; 250 g ai/ha)
95: crop damage rating CORN ([12]; 250 g ai/ha)
90: phytotoxicity rating CHEAL ([7]; 63 g ai/ha)
35: crop damage rating CORN ([12]; 63 g ai/ha) | phytotoxicity rating SORHA ([19]; 63 g ai/ha)
5: crop damage rating RICE ([26]; 63 g ai/ha)
99: phytotoxicity rating AMBEL ([3]; 63 g ai/ha) | phytotoxicity rating ECHCG ([14]; 250 g ai/ha) | phytotoxicity rating SORHA ([19]; 250 g ai/ha) | phytotoxicity rating CASOB ([23]; 250 g ai/ha)
75: phytotoxicity rating XANST ([2]; 63 g ai/ha)
55: phytotoxicity rating SETVI ([4]; 250 g ai/ha) | phytotoxicity rating DIGSA ([8]; 250 g ai/ha) | crop damage rating RICE ([26]; 250 g ai/ha)
